This note sets out measurements from patent US7371780B2, “Use of calphostin C to treat drug-resistant tumor cells” (priority 2003, dated 2008).

Assay [1] concerns MCF-7DOX cells. Kind of assay: Microscopic cell morphology, MCF-7DOX. The note with it: 2 μM doxorubicin, 24 h. In kind it is cell-based, human. The procedure:
(§1) For microscopic observation, cells were seeded onto standard glass coverslips in 10 cm tissue culture plates with 10 ml of H21 medium and grown for 2 days until 40-50% confluence was obtained. After treatment with paclitaxel, doxorubicin or calphostin C, the cells on the glass coverslips were washed twice with PBS (2.7 mM KCl, 1.0 mM KH2PO4, 137 mM NaCl, 10 mM Na2HPO4, pH 7.4) and stained with acridine orange/ethidium bromide (each at 4 μg/ml in PBS) for 10 min at 37° C.. The coverslips were then washed three times in PBS and mounted onto standard glass slides for morphological evaluation. For propidium iodide (PI) staining, the cells on coverslips were washed twice with PBS and fixed in methanol (cooled to −20° C.) for 20 min. Thirty μl of propidium iodide (PI) staining solution (100 μg/ml PI, 0.1% sodium citrate, 100 μg/ml RNase A and 0.3% Nonidet P-40) were then applied to the coverslips for 5 min. […] The cells were then examined using a Zeiss Axiovert 100 inverted fluorescence microscope. […] For each sample, the number of dead cells was determined by visualization after ethidium bromide staining, whereby only dead cells which have lost membrane integrity allow entry of cell-impermeable ethidium bromide into cells to complex with DNA and induce bright red fluorescence. […] The images were recorded and overlayed using Northern Eclipse software (Empix Imaging Inc., Mississauga, ON).

Assay [2] concerns MCF-7DOX (doxorubicin-resistant) cells. In words: Clonogenic assay, MCF-7DOX cells. The note with it: for fold resistance / lower sensitivity compared to MCF-7 cells: MCF-7DOX vs MCF-7. In kind it is cell-based, human. Here is the method: (§2) The breast cancer cell line MCF-7 (lot HTB-22) was obtained from the American […] (ATCC) and maintained in Dulbecco's H21 medium (MEM) supplemented with 10% Fetal Bovine Serum (FBS) (HyClone, Logan, Utah) in a humidified atmosphere containing 5% CO2 at 37° C. To establish drug resistant cell lines, MCF-7 cells were grown in the presence of either paclitaxel or doxorubicin, beginning at a concentration 1000-fold below that required to kill 50% of the cells (the IC50). The drug concentration was increased 3-fold every two weeks (two passages), with an aliquot of the cells removed for storage in liquid nitrogen before each increase in concentration. Dose escalation continued until all cells died, after which the cells able to tolerate the highest concentration of drug were thawed for subsequent study. In this way, paclitaxel-resistant (MCF-7TAX) and doxorubicin-resistant (MCF-7DOX) cell lines were established. The IC50 for each drug was determined using a clonogenic assay as outlined below. The drug resistant cells were kept in culture in the presence of the maximally tolerated drug dose. Before each experiment, the cell lines were grown for two days in the absence of drug after which fresh medium containing either calphostin C (Sigma Laboratories, Oakville, ON), doxorubicin (Adriamycin PFS®, USP, Mississauga, ON) or paclitaxel (Taxol, Bristol-Myers Squibb, Montreal, QC) was added at the concentrations indicated.
The sensitivity of MCF-7, MCF-7TAX and MCF-7DOX cells to calphostin C, paclitaxel or doxorubicin was determined using a clonogenic assay. Briefly, 2.5×10^5 cells were seeded into 25 cm^2 tissue culture flasks in Dulbecco's H21 medium supplemented with 10% FBS. The cells were allowed to grow overnight, after which the medium was removed and replaced with medium containing varying concentrations of paclitaxel, doxorubicin, or calphostin C (after 2 hours of light exposure to activate the molecule). After 24 hours, the medium (including any floating cells) was transferred to 14 ml screw-capped tubes and centrifuged at 1000 rpm for 10 min. The adherent cells were then released from their flasks by trypsin treatment and suspended in 10 ml of H21 medium. The cell suspension was transferred to the previous tube and all cells harvested by centrifugation. The cell pellet was washed one more time with drug-free medium and resuspended in 300 μl of normal growth medium containing FBS. The cells were then added to 2.7 ml of a methylcellulose solution. The methylcellulose medium was prepared by combining 70 ml of a 2.6% (w/v) methylcellulose solution [Shin-Etsu Chemical Co., Tokyo, Japan] in Iscove's medium (Princess Margaret Hospital, Toronto, ON) with 30 ml of FBS. Three ml syringes equipped with a 16-gauge needle were used for transferring the viscous medium. The mixture was vigorously vortexed for 10 s to ensure an even distribution of cells within the viscous medium. The vortexed samples were then allowed to sit for 30 min to remove air bubbles. A 1.2 ml aliquot of the cell suspension was then transferred to a 6-well plate and the cells allowed to grow until colonies of >50 cells were visible by light microscopy for the various cell lines in the absence of drug. The colonies present in 5 randomly selected fields were then counted by visual inspection.
Calphostin C (Sigma Laboratories, Oakville, ON) was prepared as a 100 μM stock solution in dimethylsulfoxide (Sigma Laboratories, Oakville, ON) and stored at −70° C. in 100 μl aliquots. […]

Assay [3] relates to MCF-7 cells. In words: Flow cytometric sub-G1 DNA content, MCF-7. In kind it is cell-based, human. The note with it: 10 nM paclitaxel or 2 μM doxorubicin. Here is the method: For flow cytometric analysis, cells at about 50% to 60% confluence were released from their flasks by trypsin treatment and washed with PBS. After centrifugation at 1000 rpm for 5 min, cells were then fixed by resuspension in 75% ethanol for 2 hours, collected by centrifugation, and resuspended in PI staining solution (see above) for 1 h. For each sample, approximately 2×10^4 cells were analyzed using a Beckman Coulter Epics® Elite flow cytometer. Fluorescence intensity upon stimulation with an argon-ion laser at 488 nm was measured using the PMT4 channel (625DL filter) and plotted against cell number. The percentage of cells with a sub-G1 DNA content was determined by the flow cytometer, adjusting the gates such that only cells with a fluorescence lower than the peak for untreated cells in G1 are counted (see FIG. 4).

The subject of assay [4] is MCF-7TAX cells. In words: Drug uptake, MCF-7TAX. It counts as cell-based, human. The note with it: 2 μM doxorubicin or [3H]-paclitaxel. The procedure:
(§3) FIG. 5 illustrates the effect of calphostin C (Cal-C) on drug uptake in MCF-7 (square symbols), MCF-7TAX (diamond symbols) and MCF-7DOX (triangular symbols) cells. After one-day growth, the cells were left untreated (closed symbols) or treated with 100 nM calphostin C for 2 h with light activation (open symbols). Cells were then washed and the medium replaced with medium containing 2 μM of doxorubicin (A) or [^3H]-paclitaxel (B). The cells were then trypsinized and drug accumulation measured by flow cytometry (A) or liquid scintillation counting (B) at indicated time points. The figures are representative of three independent experiments.

Assay [5] relates to MCF-7 cells. In words: Clonogenic assay, MCF-7 cells. It counts as cell-based, human. The note with it: Homo sapiens, MCF7, 24 h drug, calphostin C light-activated 2 h, read-out: IC50 (concentration required to kill or inhibit the growth of 50% of cells). Here is the method:
as §2
(§4) The sensitivity of MCF-7, MCF-7TAX and MCF-7DOX cells to calphostin C, paclitaxel or doxorubicin was determined using a clonogenic assay. Briefly, 2.5×10^5 cells were seeded into 25 cm^2 tissue culture flasks in Dulbecco's H21 medium supplemented with 10% FBS. The cells were allowed to grow overnight, after which the medium was removed and replaced with medium containing varying concentrations of paclitaxel, doxorubicin, or calphostin C (after 2 hours of light exposure to activate the molecule). […] The colonies present in 5 randomly selected fields were then counted by visual inspection. […]

Assay [6] relates to MCF-7DOX cells. Kind of assay: Drug uptake, MCF-7DOX. It counts as cell-based, human. The note with it: 2 μM doxorubicin or [3H]-paclitaxel. The procedure:
as §3

Assay [7] concerns caspase-8 and PARP in Jurkat cells. Kind of assay: Immunoblotting of apoptosis markers, Jurkat (positive control). It counts as cell-based. The note with it: 3 μg/ml etoposide, 24 hours. The procedure: FIG. 9 illustrates the effect of calphostin C on caspase 8 cleavage, PARP cleavage, and cytochrome C release in MCF-7, MCF-7FDOX, and MCF-7TAX cells. The MCF-7, MCF-7FDOX, and MCF-7TAX cell lines were incubated with (+) or without (−) 100 nM calphostin C, after which whole cell extracts were monitored for caspase-8 and cytochrome C levels by immunoblotting as described in Materials and Methods. A similar experiment was also performed, except that mitochondrial (M) and cytosolic (C) fractions were prepared as described in Materials and Methods to monitor by immunoblotting the release of cytochrome C from mitochondria into the cytosol in response to calphostin C. As positive controls, similar experiments were conducted using Jurkat cells, with (+) or without (−) the addition of 3 μg/ml etoposide for 24 hours.
Extraction of proteins from whole cells was performed using RIPA buffer (1% NP40, 0.5% sodium deoxycholate, 0.1% SDS, 1 Complete™ protease inhibitor tablet in 50 ml of PBS). Prior to use, the RIPA buffer (50 ml) was supplemented with 500 μl each of both 100 mM sodium orthovanadate and 10 mg/ml phenylmethylsulfonyl fluoride. Cultured cells were grown as a monolayer and allowed to reach 70-90% confluence in 10 cm tissue culture plates. […]

Assay [8] deals with MCF-7TAX (paclitaxel-resistant) cells. Kind of assay: Clonogenic assay, MCF-7TAX cells. In kind it is cell-based, human. Here is the method: as §2, §4
Assay [9] has as its system MCF-7 cells. In words: Microscopic cell morphology (bright field, AO/EB, PI), MCF-7. In kind it is cell-based, human. The note with it: 10 nM paclitaxel, 24 hours, PI staining. Here is the method:
as §1

For assay [10], the system named is MCF-7TAX cells. Kind of assay: Microscopic cell morphology, MCF-7TAX. It counts as cell-based, human. The note with it: 10 nM paclitaxel, 24 h. The procedure: as §1

The structures appear in SMILES notation.

On to `COc1cccc2c1C(=O)c1c(O)c3c(c(O)c1C2=O)C[C@@](O)(C(=O)CO)C[C@@H]3O[C@H]1C[C@H](N)[C@H](O)[C@H](C)O1` [doxorubicin], for which the “change in morphology over untreated cells” value in the assay with MCF-7DOX cells [1] was “no change in morphology”. Besides, the IC50 in assay [2] (Homo sapiens, MCF7-DOX, MCF-7DOX cells, 24 h drug, calphostin C light-activated 2 h) was 0.6 µM; in the assay on MCF-7 cells [5], 0.01 µM. Besides, the “fold resistance / lower sensitivity compared to MCF-7 cells” value in assay [2] is recorded as 60 fold. Besides, in the assay with MCF-7 cells [3], the “time of large increase in number of cells with sub-G1 DNA content after drug administration” value is “approximately 24 hours”. Moreover, the “drug uptake compared to MCF-7 cells” value in the assay on MCF-7TAX cells [4] and in the assay with MCF-7DOX cells [6] was “dramatically lower” throughout.

For `COc1cc([C@@H]2c3cc4c(cc3[C@@H](O[C@@H]3O[C@@H]5CO[C@@H](C)O[C@H]5[C@H](O)[C@H]3O)[C@H]3COC(=O)[C@H]23)OCO4)cc(OC)c1O` [etoposide], the “caspase-8 and PARP cleavage” value in [7] is “could induce caspase-8 and PARP cleavage”.

As for `CC(=O)O[C@H]1C(=O)[C@@]2(C)[C@H]([C@H](OC(=O)c3ccccc3)[C@]3(O)C[C@H](OC(=O)[C@H](O)[C@@H](NC(=O)c4ccccc4)c4ccccc4)C(C)=C1C3(C)C)[C@]1(OC(C)=O)CO[C@@H]1C[C@@H]2O` [paclitaxel], the “fold resistance / lower sensitivity compared to MCF-7 cells” value in assay [2] is “approximately 4000 fold”. For the same molecule, in the assay on MCF-7 cells [3], the “time of large increase in number of cells with sub-G1 DNA content after drug administration” value is given as “approximately 24 hours”. Further, the “drug uptake compared to MCF-7 cells” value with MCF-7TAX cells [4] and in the assay on MCF-7DOX cells [6] was “dramatically lower” throughout. Also, the IC50 in assay [8] (Homo sapiens, MCF-7TAX cells, 24 h drug, calphostin C light-activated 2 h) was 0.027 µM; in the assay with MCF-7 cells [5], 0.0005 µM. Further, the “fold higher IC50 than for MCF-7 cells” value in [8] (MCF-7TAX vs MCF-7) stood at 54 fold. For the same molecule, the “percentage of adherent cells multinucleated” value in the assay with MCF-7 cells [9] is on record as “over 60%”. For the same molecule, the “change in morphology over untreated cells” value with MCF-7TAX cells [10] is given as “no change in morphology”.
